Here are results for 33 compounds from US20220331414A1, “LIPID COMPOUNDS AND LIPID NANOPARTICLE COMPOSITIONS” (Suzhou Abogen Biosciences Co., Ltd., priority 2020, published 2022).

Series [1] in a line: Encapsulation efficiency of lipid nanoparticles (Quant-it Ribogreen RNA assay). Format: physicochemical. Particulars: LNP of cationic lipid/DSPC/cholesterol/PEG-lipid 50:10:38.5:1.5 with mRNA. Here is the method:
(§1) Briefly, a cationic lipid provided herein, DSPC, cholesterol, and PEG-lipid were solubilized in ethanol at a molar ratio of 50:10:38.5:1.5, and mRNA were diluted in 10 to 50 mM citrate buffer, pH=4. The LNPs were prepared at a total lipid to mRNA weight ratio of approximately 10:1 to 30:1 by mixing the ethanolic lipid solution with the aqueous mRNA solution at a volume ratio of 1:3 using a microfluidic apparatus, total flow rate ranging from 9-30 mL/min. Ethanol were thereby removed and replaced by DPBS using dialysis. Finally, the lipid nanoparticles were filtered through a 0.2 μm sterile filter.
(§2) Lipid nanoparticle size were determined by dynamic light scattering using a Malvern Zetasizer Nano ZS (Malvern UK) using a 173° backscatter detection mode. The encapsulation efficiency of lipid nanoparticles were determined using a Quant-it Ribogreen RNA quantification assay kit (Thermo Fisher Scientific, UK) according to the manufacturer's instructions.

Series [2] is described as follows: Apparent pKa of LNP formulations by TNS fluorescence assay. To be noted: LNP cationic lipid/DSPC/cholesterol/DMG-PEG 50/10/38.5/1.5 mol %, pH 3 to 9.
Description: TNS was prepared as a 300 uM stock solution in distilled water. LNP formulations were diluted to 0.1 mg/ml total lipid in 3 mL of buffered solutions containing 50 mM sodium citrate, 50 mM sodium phosphate, 50 mM sodium borate, and 30 mM sodium chloride where the pH ranged from 3 to 9. An aliquot of the TNS solution was added to give a final concentration of 0.1 mg/ml and following vortex mixing fluorescence intensity was measured at room temperature in a Molecular Devices Spectramax iD3 spectrometer using excitation and mission wavelengths of 325 nm and 435 nm. A sigmoidal best fit analysis was applied to the fluorescence data and the pKa value was measured as the pH giving rise to half—maximal fluorescent intensity.
Series [3] can be described thus: Lipid nanoparticle size and polydispersity by dynamic light scattering. Format: physicochemical. To be noted: LNP of cationic lipid/DSPC/cholesterol/PEG-lipid 50:10:38.5:1.5 with mRNA. Here is the method:
as §1, §2

As to `CCCCCCCCCOP(=O)(NCCCCN(C)C)OCCCCCCCCC` [Compound 1], the “Encapsulation Efficiency” value in series [1] is given as 90.3%. For the same compound, the “Apparant Pka” value in series [2] is listed as 7.65. Further, in series [3], the polydispersity is given as 0.074 and the “size (nm)” value was found to be 54.18 nm.

Consider `CCCCCCCCCOC(=O)CCCCCOP(=O)(NCCCCN(C)C)OCCCCCC(=O)OCCCCCCCCC` [Compound 2], for which the “Encapsulation Efficiency” value in series [1] stood at 98.5%. Also, the “Apparant Pka” value in series [2] worked out at 9.07. Also, in series [3], the polydispersity was 0.181 and the “size (nm)” value amounted to 116.8 nm.

For `CCCCCCCCCOP(=O)(NCCN(C)C)OCCCCCCCCC` [Compound 3], the “Encapsulation Efficiency” value in series [1] came out at 61.6%. Also, the “Apparant Pka” value in series [2] stood at 8.59. Also, in series [3], the polydispersity is given as 0.154 and the “size (nm)” value is given as 53.41 nm.

Consider `CCCCCCCCCOP(=O)(NCCCN(C)C)OCCCCCCCCC` [Compound 4], for which the “Encapsulation Efficiency” value in series [1] is given as 73.2%. In addition, the “Apparant Pka” value in series [2] is given as 8.26. In series [3], the polydispersity came to 0.055 and the “size (nm)” value was found to be 72.06 nm.

Turning to `CCCCCCCCCOC(=O)CCCCCOP(=O)(NCCN(C)C)OCCCCCC(=O)OCCCCCCCCC` [Compound 5], the “Encapsulation Efficiency” value in series [1] is 88.8%. In addition, in series [2], the “Apparant Pka” value stood at 7.26. Also, in series [3], the polydispersity worked out at 0.194 and the “size (nm)” value was 94.66 nm.

Turning to `CCCCCCCCCOC(=O)CCCCCOP(=O)(NCCCN(C)C)OCCCCCC(=O)OCCCCCCCCC` [Compound 6], in series [1], the “Encapsulation Efficiency” value amounted to 88.3%. For the same compound, in series [2], the “Apparant Pka” value was 7.33. For the same compound, in series [3], the polydispersity is 0.262 and the “size (nm)” value is recorded as 111.7 nm.

`CCCCCCCCC(CCCCCC)COP(=O)(NCCCN(C)C)OCC(CCCCCC)CCCCCCCC` (centres unmarked) [Compound 7]: the “Encapsulation Efficiency” value in series [1] stood at 96.3%. Besides, in series [2], the “Apparant Pka” value came out at 7.20. Also, in series [3], the polydispersity came to 0.1 and the “size (nm)” value is given as 73.54 nm.

On to `CCCCCCCCCOP(=O)(OCCCCCCCCC)OCCCN(C)C` [Compound 8], for which the “Encapsulation Efficiency” value in series [1] came to 93.2%. Besides, the “Apparant Pka” value in series [2] is 8.10. In series [3], the polydispersity is 0.187 and the “size (nm)” value was 56.41 nm.

Turning to `CCCCCCCCCCCCCOP(=O)(NCCCN(C)C)OCCCCCCCCCCCCC` [Compound 10], the “Encapsulation Efficiency” value in series [1] turned out to be 96.2%. The “Apparant Pka” value in series [2] is reported as 6.94. For the same compound, in series [3], the polydispersity is 0.116 and the “size (nm)” value was 138.3 nm.

For `CCCCCCCCCCCCCCOP(=O)(NCCCN(C)C)OCCCCCCCCCCCCCC` [Compound 11], the “Encapsulation Efficiency” value in series [1] was determined as 81.3%. The “Apparant Pka” value in series [2] is 8.53. In addition, in series [3], the polydispersity turned out to be 0.092 and the “size (nm)” value came out at 107.7 nm.

As to `CCCCCCCCCCCCCOP(=O)(NCCCN1CCCC1)OCCCCCCCCCCCCC` [Compound 12], in series [1], the “Encapsulation Efficiency” value is 94.0%. Also, in series [2], the “Apparant Pka” value was 6.13. Also, in series [3], the polydispersity stood at 0.137 and the “size (nm)” value is recorded as 164.9 nm.

Turning to `CCCCCCCCCCCCCOP(=O)(NCCN1CCCCC1)OCCCCCCCCCCCCC` [Compound 13], the “Encapsulation Efficiency” value in series [1] was 96.5%. For the same compound, in series [2], the “Apparant Pka” value came to 7.79. Further, in series [3], the polydispersity is reported as 0.034 and the “size (nm)” value is listed as 130.5 nm.

Take `CCCCCCCCC(CCCCCC)COP(=O)(NCCN(CCO)CCCC)OCC(CCCCCC)CCCCCCCC` (centres unmarked) [Compound 14]: the “Encapsulation Efficiency” value in series [1] is on record as 88.8%. Further, the “Apparant Pka” value in series [2] is listed as 5.64. Moreover, in series [3], the polydispersity came to 0.037 and the “size (nm)” value was determined as 138.5 nm.

As for `CCCCCCCCCCCCCOP(=O)(NCCN1CCOCC1)OCCCCCCCCCCCCC` [Compound 15], in series [1], the “Encapsulation Efficiency” value amounted to 73.6%. Besides, in series [2], the “Apparant Pka” value worked out at 5.90. In series [3], the polydispersity was 0.059 and the “size (nm)” value worked out at 104.3 nm.

Take `CCCCCCCCCCCCCOP(=O)(NC1CCN(C2CCOCC2)CC1)OCCCCCCCCCCCCC` [Compound 16]: in series [1], the “Encapsulation Efficiency” value is recorded as 79.9%. Besides, the “Apparant Pka” value in series [2] stood at 7.75. Besides, in series [3], the polydispersity is listed as 0.113 and the “size (nm)” value came out at 305.4 nm.

Turning to `CCCCCCCCCCCCCOP(=O)(NCCN1CCN(C(C)=O)CC1)OCCCCCCCCCCCCC` [Compound 17], the “Encapsulation Efficiency” value in series [1] is 61.6%. Besides, in series [2], the “Apparant Pka” value was 5.42. Also, in series [3], the polydispersity came out at 0.073 and the “size (nm)” value is 119.8 nm.

`CCCCCCCCCCCCCOP(=O)(OCCCCCCCCCCCCC)N1CCC(N(C)C)CC1` [Compound 18]: the “Encapsulation Efficiency” value in series [1] is reported as 94.3%. Moreover, the “Apparant Pka” value in series [2] is listed as 6.16. Further, in series [3], the polydispersity worked out at 0.074 and the “size (nm)” value is on record as 159.2 nm.

Consider `CCCCCCCCCCCCCOP(=O)(OCCCCCCCCCCCCC)N1CCC(N2CCOCC2)CC1` [Compound 19], for which the “Encapsulation Efficiency” value in series [1] is reported as 73.7%. Besides, in series [2], the “Apparant Pka” value was found to be 6.38. Further, in series [3], the polydispersity came out at 0.086 and the “size (nm)” value is 110.8 nm.

In the case of `CCCCCCCCCCCCCOP(=O)(OCCCCCCCCCCCCC)N1CC2(CCN(C)CC2)C1` [Compound 20], the “Encapsulation Efficiency” value in series [1] came out at 94.2%. For the same compound, in series [2], the “Apparant Pka” value turned out to be 5.81. Also, in series [3], the polydispersity is listed as 0.068 and the “size (nm)” value stood at 92.15 nm.

As to `CCCCCCCCC(CCCCCC)COP(=O)(NCCN(C)C)OCC(CCCCCC)CCCCCCCC` (centres unmarked) [Compound 21], the “Encapsulation Efficiency” value in series [1] was determined as 70.2%. Moreover, the “Apparant Pka” value in series [2] was found to be 4.79. Further, in series [3], the polydispersity turned out to be 0.105 and the “size (nm)” value is 80.66 nm.

With `CCCCCCCCC(CCCCCC)COP(=O)(NCCCCN(C)C)OCC(CCCCCC)CCCCCCCC` (centres unmarked) [Compound 22], the “Encapsulation Efficiency” value in series [1] is listed as 98.7%. For the same compound, the “Apparant Pka” value in series [2] is on record as 7.37. Besides, in series [3], the polydispersity was 0.101 and the “size (nm)” value is 79.13 nm.

Consider `CCCCCCCCC(CCCCCC)COP(=O)(NCCCN1CCC1)OCC(CCCCCC)CCCCCCCC` (centres unmarked) [Compound 23], for which the “Encapsulation Efficiency” value in series [1] is 100.4%. Further, the “Apparant Pka” value in series [2] is 7.43. In series [3], the polydispersity came to 0.234 and the “size (nm)” value is 57.36 nm.

Consider `CCCCCCCCC(CCCCCC)COP(=O)(NCCN1CCCC1)OCC(CCCCCC)CCCCCCCC` (centres unmarked) [Compound 24], for which the “Encapsulation Efficiency” value in series [1] was determined as 98.0%. Moreover, the “Apparant Pka” value in series [2] is listed as 6.63. Also, in series [3], the polydispersity was 0.131 and the “size (nm)” value is 81.53 nm.

Turning to `CCCCCCCCC(CCCCCC)COP(=O)(NCCCN1CCCC1)OCC(CCCCCC)CCCCCCCC` (centres unmarked) [Compound 25], the “Encapsulation Efficiency” value in series [1] worked out at 52.3%. The “Apparant Pka” value in series [2] was 5.49. In series [3], the polydispersity is 0.057 and the “size (nm)” value is listed as 109.7 nm.

Regarding `CCCCCCCCC(CCCCCC)COP(=O)(NCCN1CCCCC1)OCC(CCCCCC)CCCCCCCC` (centres unmarked) [Compound 26], the “Encapsulation Efficiency” value in series [1] was 93.6%. Also, in series [2], the “Apparant Pka” value is 4.99. In series [3], the polydispersity was 0.27 and the “size (nm)” value was 68.19 nm.

On to `CCCCCCCCC(CCCCCC)COP(=O)(NCCCN1CCCCC1)OCC(CCCCCC)CCCCCCCC` (centres unmarked) [Compound 27], for which the “Encapsulation Efficiency” value in series [1] was 75.7%. In addition, the “Apparant Pka” value in series [2] was determined as 5.18. Further, in series [3], the polydispersity was 0.135 and the “size (nm)” value amounted to 83.11 nm.

As for `CCCCCCCCC(CCCCCC)COP(=O)(NCCN1CCCCCC1)OCC(CCCCCC)CCCCCCCC` (centres unmarked) [Compound 28], in series [1], the “Encapsulation Efficiency” value is 48.1%. In addition, the “Apparant Pka” value in series [2] worked out at 4.92. In addition, in series [3], the polydispersity was 0.204 and the “size (nm)” value turned out to be 77.49 nm.

As to `CCCCCCCCC(CCCCCCCC)OC(=O)CCCCCCCOP(=O)(NCCN(C)C)OCCCCCCC` (centres unmarked) [Compound 42], the “Encapsulation Efficiency” value in series [1] was determined as 102.3%. For the same compound, in series [3], the polydispersity is given as 0.1 and the “size (nm)” value amounted to 54.46 nm.

Take `CCCCCCCCC(CCCCCC)COC(=O)CCCCCOP(=O)(NCCCN(C)C)OCCCCCC(=O)OCC(CCCCCC)CCCCCCCC` (centres unmarked) [Compound 45]: the “Encapsulation Efficiency” value in series [1] is given as 102.8%. Further, in series [3], the polydispersity turned out to be 0.12 and the “size (nm)” value is 63.18 nm.

In the case of `CCCCCCCCC(CCCCCC)COP(=O)(NCCN(C(C)C)C(C)C)OCC(CCCCCC)CCCCCCCC` (centres unmarked) [Compound 48], the “Encapsulation Efficiency” value in series [1] came out at 93.48%. In series [3], the polydispersity was 0.094 and the “size (nm)” value was determined as 73.81 nm.

As to `CCCCCCCCC(CCCCCC)COP(=O)(NCCN(CCC)CCC)OCC(CCCCCC)CCCCCCCC` (centres unmarked) [Compound 50], the “Encapsulation Efficiency” value in series [1] came out at 85.5%. Moreover, in series [3], the polydispersity amounted to 0.09 and the “size (nm)” value came to 93.25 nm.

Turning to `CCCCCCCCC(CCCCCC)COP(=O)(NCCN1CC2CCCC2C1)OCC(CCCCCC)CCCCCCCC` (centres unmarked) [Compound 61], the “Encapsulation Efficiency” value in series [1] is recorded as 82.85%. In addition, in series [3], the polydispersity turned out to be 0.163 and the “size (nm)” value was determined as 69.3 nm.

On to `CCCCCCCCCCC(CCCCCCCCCC)COP(=O)(NCCN(CC)CC)OCC(CCCCCCCCCC)CCCCCCCCCC` [Compound 86], for which, in series [1], the “Encapsulation Efficiency” value is 81.0%. Moreover, in series [2], the “Apparant Pka” value worked out at 4.924.
